This note sets out measurements from article PMC5218480 (PLoS ONE, 2017).

The subject of this experiment is MV-4-11 cells. Briefly: Gene expression microarray analysis (Affymetrix PrimeView) and GSEA. Conditions: MV-4-11 cells, 48 hours. More on the design: RFU PODN (11730768_x_at) / Fold change /veh PODN (11730768_x_at) / RFU LINC00158 (11744669_a_at) / Fold change /veh LINC00158 (11744669_a_at) / RFU DUSP10 (11751237_a_at) / Fold change /veh DUSP10 (11751237_a_at) / RFU ID3 (11757404_x_at) / Fold change /veh ID3 (11757404_x_at) / RFU PLEKHG5 (11737974_s_at) / Fold change /veh PLEKHG5 (11737974_s_at) / RFU LRRC4B (11730491_at) / Fold change /veh LRRC4B (11730491_at) / RFU GIMAP4 (11747438_a_at) / Fold change /veh GIMAP4 (11747438_a_at) / RFU KRT8 (11758183_x_at) / Fold change /veh KRT8 (11758183_x_at) / RFU CNN1 (11734310_a_at) / Fold change /veh CNN1 (11734310_a_at) / RFU VPS37D (11726825_at) / Fold change /veh VPS37D (11726825_at) / RFU C10orf10 (11716522_x_at) / Fold change /veh C10orf10 (11716522_x_at) / RFU KIR2DL2 /// KIR2DL4 /// KIR2DL5A /// KIR2DL5B /// KIR2DS1 /// KIR2DS2 /// KIR2DS3 /// KIR2DS4 /// KIR3DL3 /// KIR3DL3 /// KIR3DS1 (11738374_at) / Fold change /veh KIR2DL2 /// KIR2DL4 /// KIR2DL5A /// KIR2DL5B /// KIR2DS1 /// KIR2DS2 /// KIR2DS3 /// KIR2DS4 /// KIR3DL3 /// KIR3DL3 /// KIR3DS1 (11738374_at) / RFU C1QL1 (11718748_at) / Fold change /veh C1QL1 (11718748_at) / RFU TMPRSS4 (11747572_a_at) / Fold change /veh TMPRSS4 (11747572_a_at) / RFU HAMP (11756126_x_at) / Fold change /veh HAMP (11756126_x_at) / RFU RNFT2 (11725882_a_at) / Fold change /veh RNFT2 (11725882_a_at) / RFU NR4A2 (11747474_a_at) / Fold change /veh NR4A2 (11747474_a_at) / RFU ABCC12 (11746883_a_at) / Fold change /veh ABCC12 (11746883_a_at) / RFU TMEM136 (11760407_x_at) / Fold change /veh TMEM136 (11760407_x_at) / RFU CLDN22 /// WWC2 (11732394_at) / Fold change /veh CLDN22 /// WWC2 (11732394_at) / RFU HLA-DPB1 (11760878_x_at) / Fold change /veh HLA-DPB1 (11760878_x_at) / RFU SPINT1 (11716480_a_at) / Fold change /veh SPINT1 (11716480_a_at) / RFU GAP43 (11754022_s_at) / Fold change /veh GAP43 (11754022_s_at) / RFU A4GNT (11735810_at) / Fold change /veh A4GNT (11735810_at) / RFU PRB3 (11715151_x_at) / Fold change /veh PRB3 (11715151_x_at) / RFU TUBB4B (11761932_at) / Fold change /veh TUBB4B (11761932_at) / RFU CAPN14 (11732068_a_at) / Fold change /veh CAPN14 (11732068_a_at) / RFU TMCC2 (11721928_a_at) / Fold change /veh TMCC2 (11721928_a_at) / RFU IRGQ (11745062_a_at) / Fold change /veh IRGQ (11745062_a_at) / RFU FAM174B (11720279_a_at) / Fold change /veh FAM174B (11720279_a_at) / RFU TMPRSS4 (11748680_a_at) / Fold change /veh TMPRSS4 (11748680_a_at) / RFU FAM212B (11763350_a_at) / Fold change /veh FAM212B (11763350_a_at) / RFU PLEKHG5 (11743358_a_at) / Fold change /veh PLEKHG5 (11743358_a_at) / RFU ZSCAN30 (11745921_a_at) / Fold change /veh ZSCAN30 (11745921_a_at) / RFU CMKLR1 (11741424_a_at) / Fold change /veh CMKLR1 (11741424_a_at) / RFU LOC101060620 /// MAPK8IP1 (11723275_at) / Fold change /veh LOC101060620 /// MAPK8IP1 (11723275_at) / RFU SPTSSB (11747773_x_at) / Fold change /veh SPTSSB (11747773_x_at) / RFU PRSS12 (11739890_at) / Fold change /veh PRSS12 (11739890_at) / RFU BIN1 (11741810_x_at) / Fold change /veh BIN1 (11741810_x_at) / RFU WNT11 (11732464_a_at) / Fold change /veh WNT11 (11732464_a_at) / RFU C10orf10 (11716521_a_at) / Fold change /veh C10orf10 (11716521_a_at) / RFU C5orf56 (11738089_at) / Fold change /veh C5orf56 (11738089_at) / RFU CYB561 (11721691_x_at) / Fold change /veh CYB561 (11721691_x_at) / RFU ANKRD19P (11752326_a_at) / Fold change /veh ANKRD19P (11752326_a_at) / RFU OR2T12 /// OR2T33 /// OR2T8 (11738714_s_at) / Fold change /veh OR2T12 /// OR2T33 /// OR2T8 (11738714_s_at) / RFU VCAN (11748164_a_at) / Fold change /veh VCAN (11748164_a_at) / RFU JSRP1 (11732532_at) / Fold change /veh JSRP1 (11732532_at) / RFU KRTAP10-11 (11738290_x_at) / Fold change /veh KRTAP10-11 (11738290_x_at) / RFU MYO3A (11730013_a_at) / Fold change /veh MYO3A (11730013_a_at) / RFU EBF3 (11725865_a_at) / Fold change /veh EBF3 (11725865_a_at) / RFU CAMK2N1 (11719241_x_at) / Fold change /veh CAMK2N1 (11719241_x_at) / RFU C5orf56 (11738088_a_at) / Fold change /veh C5orf56 (11738088_a_at) / RFU OLFML3 (11715873_a_at) / Fold change /veh OLFML3 (11715873_a_at) / RFU LOC100653217 /// NTM (11731650_a_at) / Fold change /veh LOC100653217 /// NTM (11731650_a_at) / RFU MAPK11 (11762145_a_at) / Fold change /veh MAPK11 (11762145_a_at) / RFU FIZ1 (11724087_x_at) / Fold change /veh FIZ1 (11724087_x_at) / RFU OASL (11726364_x_at) / Fold change /veh OASL (11726364_x_at) / RFU SOX15 (11748057_x_at) / Fold change /veh SOX15 (11748057_x_at) / RFU CD79A (11719716_a_at) / Fold change /veh CD79A (11719716_a_at) / RFU HIST1H1D (11736915_at) / Fold change /veh HIST1H1D (11736915_at) / RFU CASKIN2 (11723855_a_at) / Fold change /veh CASKIN2 (11723855_a_at) / RFU LOC730098 (11760151_x_at) / Fold change /veh LOC730098 (11760151_x_at) / RFU OR4N2 (11742367_at) / Fold change /veh OR4N2 (11742367_at) / RFU PRRT2 (11749266_a_at) / Fold change /veh PRRT2 (11749266_a_at) / RFU SNX32 (11753110_a_at) / Fold change /veh SNX32 (11753110_a_at) / RFU CDHR5 (11726645_a_at) / Fold change /veh CDHR5 (11726645_a_at) / RFU RCAN1 (11760418_a_at) / Fold change /veh RCAN1 (11760418_a_at) / RFU FAM167A (11723789_a_at) / Fold change /veh FAM167A (11723789_a_at) / RFU FAM26E (11764081_at) / Fold change /veh FAM26E (11764081_at) / RFU ISYNA1 (11749810_s_at) / Fold change /veh ISYNA1 (11749810_s_at) / RFU ACY1 (11761880_at) / Fold change /veh ACY1 (11761880_at) / RFU 11764098_at / Fold change /veh 11764098_at / RFU SAMD14 (11745864_x_at) / Fold change /veh SAMD14 (11745864_x_at) / RFU NPB (11741838_a_at) / Fold change /veh NPB (11741838_a_at) / RFU TMPRSS6 (11731388_a_at) / Fold change /veh TMPRSS6 (11731388_a_at) / RFU KRTAP10-2 (11738614_at) / Fold change /veh KRTAP10-2 (11738614_at) / RFU ARHGAP8 /// PRR5-ARHGAP8 (11727945_x_at) / Fold change /veh ARHGAP8 /// PRR5-ARHGAP8 (11727945_x_at) / RFU KRTAP5-7 /// NADSYN1 (11734609_at) / Fold change /veh KRTAP5-7 /// NADSYN1 (11734609_at) / RFU RASL12 (11751679_a_at) / Fold change /veh RASL12 (11751679_a_at) / RFU CDKN2B (11736163_a_at) / Fold change /veh CDKN2B (11736163_a_at) / RFU PRF1 (11729649_at) / Fold change /veh PRF1 (11729649_at) / RFU, ZNF638 /// ZNF638-IT1 / Fold change vs veh, ZNF638 /// ZNF638-IT1 / RFU, PANK3 / Fold change vs veh, PANK3 / RFU, SH3YL1 / Fold change vs veh, SH3YL1 / RFU, ZEB2 / Fold change vs veh, ZEB2 / RFU, NRIP1 / Fold change vs veh, NRIP1 / RFU, PTTG1IP / Fold change vs veh, PTTG1IP / RFU, CAPN2 / Fold change vs veh, CAPN2 / RFU, MED14 / Fold change vs veh, MED14 / RFU, SNORA58 / Fold change vs veh, SNORA58 / RFU, C1orf63 / Fold change vs veh, C1orf63 / RFU, LRRFIP1 / Fold change vs veh, LRRFIP1 / RFU, NDUFAF7 / Fold change vs veh, NDUFAF7 / RFU, SLC12A2 / Fold change vs veh, SLC12A2 / RFU, IBTK / Fold change vs veh, IBTK / RFU, ESF1 / Fold change vs veh, ESF1 / Fold change vs veh, TMEM50B / RFU, TAOK1 / Fold change vs veh, TAOK1 / RFU, ACBD3 / Fold change vs veh, ACBD3 / RFU, TMA16 / Fold change vs veh, TMA16 / RFU, RWDD3 / Fold change vs veh, RWDD3 / RFU, BCAT1 / Fold change vs veh, BCAT1 / RFU, EDEM3 / Fold change vs veh, EDEM3 / RFU, TMEM33 / Fold change vs veh, TMEM33 / RFU, WDR75 / Fold change vs veh, WDR75 / RFU, AHCTF1 / Fold change vs veh, AHCTF1 / RFU, TFRC / Fold change vs veh, TFRC / RFU, ZDHHC17 / Fold change vs veh, ZDHHC17 / RFU, NOM1 / Fold change vs veh, NOM1 / RFU, ARL8B / Fold change vs veh, ARL8B / RFU, ZBTB11 / Fold change vs veh, ZBTB11 / RFU, TAMM41 / Fold change vs veh, TAMM41 / RFU, KIAA1704 /// LOC100996395 / Fold change vs veh, KIAA1704 /// LOC100996395 / RFU, ING1 / Fold change vs veh, ING1 / RFU, TRMT61B / Fold change vs veh, TRMT61B / RFU, FUBP3 / Fold change vs veh, FUBP3 / RFU, TP53 / Fold change vs veh, TP53 / RFU, TNKS2 / Fold change vs veh, TNKS2 / RFU, ZFP14 / Fold change vs veh, ZFP14 / RFU, ACTR2 / Fold change vs veh, ACTR2 / RFU, PPP3R1 / Fold change vs veh, PPP3R1 / RFU, PIK3R1 / Fold change vs veh, PIK3R1 / RFU, HNRNPA1 / Fold change vs veh, HNRNPA1 / RFU, RNF170 / Fold change vs veh, RNF170 / RFU, ZNF28 / Fold change vs veh, ZNF28 / RFU, RNGTT / Fold change vs veh, RNGTT / RFU, OGT / Fold change vs veh, OGT / RFU, BRD1 / Fold change vs veh, BRD1 / RFU, MARS / Fold change vs veh, MARS / RFU, ZNF655 / Fold change vs veh, ZNF655 / RFU, FAHD1 / Fold change vs veh, FAHD1 / RFU, BDP1 / Fold change vs veh, BDP1 / RFU, LRRCC1 / Fold change vs veh, LRRCC1 / RFU, ARID1A / Fold change vs veh, ARID1A / RFU, ZNF146 / Fold change vs veh, ZNF146 / RFU, ZNF330 / Fold change vs veh, ZNF330 / RFU, GPN3 / Fold change vs veh, GPN3 / RFU, C9orf123 / Fold change vs veh, C9orf123 / RFU, N4BP2L2 / Fold change vs veh, N4BP2L2 / RFU, ARFIP1 / Fold change vs veh, ARFIP1 / RFU, FAM179B / Fold change vs veh, FAM179B / RFU, BCL10 / Fold change vs veh, BCL10 / RFU, UHRF1BP1L / Fold change vs veh, UHRF1BP1L / RFU, BET1 / Fold change vs veh, BET1 / RFU, CNOT2 / Fold change vs veh, CNOT2 / RFU, ZNF268 / Fold change vs veh, ZNF268 / Fold change vs veh, ZNF507 / RFU, DGCR2 / Fold change vs veh, DGCR2 / RFU, WDSUB1 / Fold change vs veh, WDSUB1 / Fold change vs veh, HSP90B1 /// MIR3652 / RFU, ADSS / Fold change vs veh, ADSS / RFU, GK / Fold change vs veh, GK / RFU, ZNF148 / Fold change vs veh, ZNF148 / RFU, TAF9 / Fold change vs veh, TAF9 / RFU, SLC1A5 / Fold change vs veh, SLC1A5 / RFU, SLMO2 / Fold change vs veh, SLMO2 / RFU, ABCC4 / Fold change vs veh, ABCC4 / RFU, LOC101060439 /// RAP1B / Fold change vs veh, LOC101060439 /// RAP1B / RFU, RFX7 / Fold change vs veh, RFX7 / RFU, GTPBP10 / Fold change vs veh, GTPBP10 / RFU, CNEP1R1 / Fold change vs veh, CNEP1R1 / RFU, BIVM-ERCC5 /// ERCC5 / Fold change vs veh, BIVM-ERCC5 /// ERCC5 / RFU, ILF3 / Fold change vs veh, ILF3 / RFU 11762660_at / Fold change /veh 11762660_at / RFU VCAN (11757783_s_at) / Fold change /veh VCAN (11757783_s_at) / RFU DDX43 (11728927_at) / Fold change /veh DDX43 (11728927_at) / RFU KRT8 (11758188_x_at) / Fold change /veh KRT8 (11758188_x_at) / RFU NKD1 (11759106_at) / Fold change /veh NKD1 (11759106_at) / RFU SRD5A1 (11742802_a_at) / Fold change /veh SRD5A1 (11742802_a_at) / RFU TPSAB1 /// TPSB2 (11721975_s_at) / Fold change /veh TPSAB1 /// TPSB2 (11721975_s_at) / RFU GSTM3 (11746129_a_at) / Fold change /veh GSTM3 (11746129_a_at) / RFU IL23R (11737362_x_at) / Fold change /veh IL23R (11737362_x_at) / RFU TMEM51 (11727254_a_at) / Fold change /veh TMEM51 (11727254_a_at) / RFU PIWIL2 (11732686_x_at) / Fold change /veh PIWIL2 (11732686_x_at) / RFU ORM1 (11744905_x_at) / Fold change /veh ORM1 (11744905_x_at) / RFU CCDC152 (11743942_at) / Fold change /veh CCDC152 (11743942_at) / RFU ECM1 (11717891_a_at) / Fold change /veh ECM1 (11717891_a_at) / RFU IL23R (11748794_a_at) / Fold change /veh IL23R (11748794_a_at) / RFU TNFAIP8L3 (11732012_x_at) / Fold change /veh TNFAIP8L3 (11732012_x_at) / RFU MBOAT4 (11741988_at) / Fold change /veh MBOAT4 (11741988_at) / RFU 11764193_at / Fold change /veh 11764193_at / RFU TMEM53 (11763286_at) / Fold change /veh TMEM53 (11763286_at) / RFU MAGEB2 (11727129_at) / Fold change /veh MAGEB2 (11727129_at) / RFU TMEM200A (11744735_a_at) / Fold change /veh TMEM200A (11744735_a_at) / RFU CCDC152 (11751479_a_at) / Fold change /veh CCDC152 (11751479_a_at) / RFU FAM211A (11726209_a_at) / Fold change /veh FAM211A (11726209_a_at) / RFU RGS16 (11746705_a_at) / Fold change /veh RGS16 (11746705_a_at) / RFU VCAN (11755009_s_at) / Fold change /veh VCAN (11755009_s_at) / RFU RHOB (11743442_s_at) / Fold change /veh RHOB (11743442_s_at) / RFU RGS16 (11720943_a_at) / Fold change /veh RGS16 (11720943_a_at) / RFU RGS16 (11720944_at) / Fold change /veh RGS16 (11720944_at) / RFU, VPS4B / Fold change vs veh, VPS4B / RFU, CREB1 / Fold change vs veh, CREB1 / RFU, DNAJC13 / Fold change vs veh, DNAJC13 / RFU, GNAQ / Fold change vs veh, GNAQ / RFU, CDK5R1 / Fold change vs veh, CDK5R1 / RFU, ZRANB3 / Fold change vs veh, ZRANB3 / RFU, CUL4A / Fold change vs veh, CUL4A / RFU, CCNY / Fold change vs veh, CCNY / RFU, UFL1 / Fold change vs veh, UFL1 / RFU, COG3 / Fold change vs veh, COG3 / RFU, DIAPH2 / Fold change vs veh, DIAPH2 / RFU, SKA2 / Fold change vs veh, SKA2 / RFU, AFF3 / Fold change vs veh, AFF3 / RFU, LMF1 / Fold change vs veh, LMF1 / RFU, IPO11 / Fold change vs veh, IPO11 / RFU, DFFB / Fold change vs veh, DFFB / RFU, FOXP1 / Fold change vs veh, FOXP1 / RFU, CARD8 / Fold change vs veh, CARD8 / RFU, STRN3 / Fold change vs veh, STRN3 / RFU, ADK / Fold change vs veh, ADK / RFU, RASSF2 / Fold change vs veh, RASSF2 / RFU, WIPF1 / Fold change vs veh, WIPF1 / RFU, LARP1B / Fold change vs veh, LARP1B / RFU, RASA1 / Fold change vs veh, RASA1 / RFU, RB1 / Fold change vs veh, RB1 / RFU, PPFIA1 / Fold change vs veh, PPFIA1 / RFU, MAT2A / Fold change vs veh, MAT2A / RFU, CCT5 / Fold change vs veh, CCT5 / RFU, WDR92 / Fold change vs veh, WDR92 / RFU, CUX1 / Fold change vs veh, CUX1 / RFU, TTC7A / Fold change vs veh, TTC7A / RFU, TMEM135 / Fold change vs veh, TMEM135 / RFU, DEPTOR / Fold change vs veh, DEPTOR / RFU, CPM / Fold change vs veh, CPM / RFU, DNAJB6 / Fold change vs veh, DNAJB6 / RFU, CACNA2D3 / Fold change vs veh, CACNA2D3 / RFU, DTX4 / Fold change vs veh, DTX4 / RFU, TFCP2 / Fold change vs veh, TFCP2 / RFU, GMCL1 /// GMCL1P1 / Fold change vs veh, GMCL1 /// GMCL1P1 / RFU, AEBP2 / Fold change vs veh, AEBP2 / RFU, SNHG1 /// SNORD22 /// SNORD25 /// SNORD26 /// SNORD27 /// SNORD28 /// SNORD29 /// SNORD31 / Fold change vs veh, SNHG1 /// SNORD22 /// SNORD25 /// SNORD26 /// SNORD27 /// SNORD28 /// SNORD29 /// SNORD31 / Fold change (Aza/veh), C12orf56 (ProbeSet 11735607_a_at) / Fold change (ACY-1035/veh), C12orf56 (ProbeSet 11735607_a_at) / Fold change (Aza/veh), FGFR1OP (ProbeSet 11751329_s_at) / Fold change (ACY-1035/veh), FGFR1OP (ProbeSet 11751329_s_at) / Fold change (Aza/veh), VPS36 (ProbeSet 11739960_a_at) / Fold change (ACY-1035/veh), VPS36 (ProbeSet 11739960_a_at) / RFU SYPL1 (11715823_x_at) / Fold change /veh SYPL1 (11715823_x_at) / RFU IGFBP7 (11715501_s_at) / Fold change /veh IGFBP7 (11715501_s_at) / RFU REEP3 (11722064_at) / Fold change /veh REEP3 (11722064_at) / RFU IGLL1 (11728026_x_at) / Fold change /veh IGLL1 (11728026_x_at): dose or concentration left out as unconfirmed. The class given is cell-based, human.

Regarding `Nc1ccc(-c2cccs2)cc1NC(=O)c1ccc2c(c1)cc(C1CC1)n2CCN1CCOCC1` [ACY-1035], the “RFU LOC730098 (11760151_x_at)” value is 35.48 RFU.
